Strand notation (5' to 3'): a small letter for the sugar, then the base; units joined by * are phosphorothioate-linked, units joined directly phosphodiester-linked; [ ] holds rarer units or linkages, { } end groups; capitals alone tell only the bases. e = 2'-O-(2-methoxyethyl) (MOE); [5mC] = 5-methylcytosine; d = 2'-deoxy (DNA)
Tests used:
[1] = tested on: human Factor 11 mRNA; experiment: Dose-dependent antisense inhibition of human Factor 11 in HepG2 cells, lipofectin 9.375-150 nM (Example 2); format: cell-based; settings: ~16 h
[2] = tested on: human Factor 11 mRNA; experiment: Dose-dependent inhibition of human Factor 11 in HepG2 cells, electroporation 375-12,000 nM (Example 32); format: cell-based; settings: for Percent inhibition of Factor 11 mRNA at 375 nM / Percent inhibition of Factor 11 mRNA at 750 nM / IC50: electroporation; for Percent inhibition of Factor 11 mRNA at 375 nM / Percent inhibition of Factor 11 mRNA at 750 nM / Percent inhibition of Factor 11 mRNA at 1,500 nM / Percent inhibition of Factor 11 mRNA at 3,000 nM / Percent inhibition of Factor 11 mRNA at 6,000 nM / Percent inhibition of Factor 11 mRNA at 12,000 nM: approx. 16 hours, relative to untreated control cells; for Percent inhibition of Factor 11 mRNA at 1,500 nM: electroporation, 1,500 nM; for Percent inhibition of Factor 11 mRNA at 3,000 nM: electroporation, 3,000 nM; for Percent inhibition of Factor 11 mRNA at 6,000 nM: electroporation, 6,000 nM; for Percent inhibition of Factor 11 mRNA at 12,000 nM: electroporation, 12,000 nM; for IC50: Factor 11 mRNA expression
Method: These gapmers were tested at various doses in HepG2 cells. Cells were plated at a density of 20,000 cells per well and transfected using electroporation with 375 nM, 750 nM, 1,500 nM, 3,000 nM, 6,000 nM and 12,000 nM concentrations of antisense oligonucleotide, as specified in Table 47. After a treatment period of approximately 16 hours, RNA was isolated from the cells and Factor 11 mRNA levels were measured by quantitative real-time PCR. Human Factor 11 primer probe set RTS 2966 was used to measure mRNA levels. Factor 11 mRNA levels were adjusted according to total RNA content, as measured by RIBOGREEN. Results are presented as percent inhibition of Factor 11, relative to untreated control cells.
ISIS 416850, ISIS 416858, ISIS 445522, and ISIS 445531 (see Table 45 above) were re-tested in vitro along with the microwalk gapmers under the same conditions described above.
The first two listed gapmers in Table 47 are the original gapmers (ISIS 416850 and ISIS 416858) from which the remaining gapmers were designed via microwalk and are designated by an asterisk.

[3] = Tolerability in Sprague-Dawley rats: liver function (Example 44); format: in vivo; design: Albumin: unit not given here; settings: 50 mg/kg s.c. twice per week for 6 weeks, plasma
[4] = Tolerability in CD1 mice: hematology assays (Example 43); format: in vivo; settings: 50 mg/kg s.c. twice per week for 6 weeks, blood
[5] = Tolerability in CD1 mice: body weight and organ weight (Example 41); settings: 50 mg/kg s.c. twice per week for 6 weeks; for body weight: increase in grams over the PBS control weight taken before the start of treatment; for Kidney weight / Liver weight / Spleen weight: percentage of the body weight
[6] = Tolerability in CD1 mice: hematology assays (Example 41); settings: 50 mg/kg s.c. twice per week for 6 weeks, blood

413482 (antisense GGACGGCATTGGTGCACAGT; 5-10-5 MOE gapmer, further chemistry not given here) [compound 413482]
percent inhibition of Factor 11 at 9.375 nM [1]: 26%
percent inhibition of Factor 11 at 18.75 nM [1]: 39%
percent inhibition of Factor 11 at 37.5 nM [1]: 59%
percent inhibition of Factor 11 at 75 nM [1]: 74%
percent inhibition of Factor 11 at 150 nM [1]: 82%
IC50 [1]: 28 nM

445522 (antisense eG*e[5mC]*eA*e[5mC]*eA*dG*dT*dT*dT*d[5mC]*dT*dG*dG*e[5mC]*eA*eG*eG*e[5mC]) [compound 445522]
Percent inhibition of Factor 11 mRNA at 375 nM [2]: 59%
Percent inhibition of Factor 11 mRNA at 750 nM [2]: 71%
Percent inhibition of Factor 11 mRNA at 1,500 nM [2]: 83%
Percent inhibition of Factor 11 mRNA at 3,000 nM [2]: 82%
Percent inhibition of Factor 11 mRNA at 6,000 nM [2]: 81%
Percent inhibition of Factor 11 mRNA at 12,000 nM [2]: 92%

ISIS 449708: 3-8-3, 4-8-4, 2-10-2, 3-10-3 or 4-10-4 MOE microwalk gapmer (Table 46) (antisense eA*e[5mC]*eA*dG*dT*dT*dT*d[5mC]*dT*dG*dG*e[5mC]*eA*eG)
ALT [3]: 25 IU/L
AST [3]: 90 IU/L
Albumin [3]: 3.2
Bilirubin [3]: 0.1 mg/dL
Platelets [4]: 1395 nL⁻¹
RBC [4]: 9.2 pL⁻¹
WBC [4]: 7 nL⁻¹
hematocrit [4]: 48%
hemoglobin [4]: 13.2 g/dL
lymphocytes [4]: 77%
monocytes [4]: 5%
neutrophils [4]: 17%

ISIS 445522: 5-8-5 or 6-8-6 MOE microwalk gapmer (Table 44) (antisense eG*e[5mC]*eA*e[5mC]*eA*dG*dT*dT*dT*d[5mC]*dT*dG*dG*e[5mC]*eA*eG*eG*e[5mC])
body weight [5]: 11 g
Kidney weight [5]: 1.7%
Liver weight [5]: 6%
Spleen weight [5]: 0.4%
HCT [6]: 49%
Lymphocyte [6]: 3997
Neutrophil [6]: 698
Platelets [6]: 1005
RBC [6]: 9.7
WBC [6]: 5
hemoglobin [6]: 14.6 g/dL

ISIS 445531: 5-8-5 or 6-8-6 MOE microwalk gapmer (Table 44) (antisense eG*eG*e[5mC]*eA*eT*dT*dG*dG*dT*dG*d[5mC]*dA*d[5mC]*eA*eG*eT*eT*eT)
body weight [5]: 10 g
Kidney weight [5]: 1.5%
Liver weight [5]: 6%
Spleen weight [5]: 0.5%
HCT [6]: 48%
Lymphocyte [6]: 6125
Neutrophil [6]: 2341
Platelets [6]: 996
RBC [6]: 9.4
WBC [6]: 9
hemoglobin [6]: 14.5 g/dL

412225 (antisense GCAGCGGACGGCATTGGTGC; 5-10-5 MOE gapmer, further chemistry not given here) [compound 412225]
percent inhibition of Factor 11 at 9.375 nM [1]: 32%
percent inhibition of Factor 11 at 18.75 nM [1]: 42%
percent inhibition of Factor 11 at 37.5 nM [1]: 65%
percent inhibition of Factor 11 at 75 nM [1]: 78%
percent inhibition of Factor 11 at 150 nM [1]: 73%
IC50 [1]: 23 nM

ISIS 449710: 3-8-3, 4-8-4, 2-10-2, 3-10-3 or 4-10-4 MOE microwalk gapmer (Table 46) (antisense e[5mC]*eA*e[5mC]*dA*dG*dT*dT*dT*d[5mC]*dT*dG*dG*d[5mC]*eA*eG*eG)
ALT [3]: 36 IU/L
AST [3]: 211 IU/L
Albumin [3]: 2.9
Bilirubin [3]: 0.1 mg/dL
Platelets [4]: 1245 nL⁻¹
RBC [4]: 9.1 pL⁻¹
WBC [4]: 7 nL⁻¹
hematocrit [4]: 48%
hemoglobin [4]: 13.5 g/dL
lymphocytes [4]: 81%
monocytes [4]: 3%
neutrophils [4]: 15%

416858 (antisense ACGGCATTGGTGCACAGTTT; 5-10-5 gapmer, further chemistry not given here) [compound 416858]
Percent inhibition of Factor 11 mRNA at 375 nM [2]: 31%
Percent inhibition of Factor 11 mRNA at 750 nM [2]: 35%
Percent inhibition of Factor 11 mRNA at 1,500 nM [2]: 78%
Percent inhibition of Factor 11 mRNA at 3,000 nM [2]: 85%
Percent inhibition of Factor 11 mRNA at 6,000 nM [2]: 90%
Percent inhibition of Factor 11 mRNA at 12,000 nM [2]: 93%
IC50 [2]: 830 nM

445531 (antisense eG*eG*e[5mC]*eA*eT*dT*dG*dG*dT*dG*d[5mC]*dA*d[5mC]*eA*eG*eT*eT*eT) [compound 445531]
Percent inhibition of Factor 11 mRNA at 375 nM [2]: 44%
Percent inhibition of Factor 11 mRNA at 750 nM [2]: 64%
Percent inhibition of Factor 11 mRNA at 1,500 nM [2]: 78%
Percent inhibition of Factor 11 mRNA at 3,000 nM [2]: 86%
Percent inhibition of Factor 11 mRNA at 6,000 nM [2]: 91%
Percent inhibition of Factor 11 mRNA at 12,000 nM [2]: 93%
IC50 [2]: 440 nM

412206 (antisense e[5mC]*e[5mC]*eG*eT*eG*d[5mC]*dA*dT*d[5mC]*dT*dT*dT*d[5mC]*dT*dT*eG*eG*e[5mC]*eA*eT) [compound 412206]
percent inhibition of Factor 11 at 9.375 nM [1]: 28%
percent inhibition of Factor 11 at 18.75 nM [1]: 44%
percent inhibition of Factor 11 at 37.5 nM [1]: 68%
percent inhibition of Factor 11 at 75 nM [1]: 80%
percent inhibition of Factor 11 at 150 nM [1]: 89%
IC50 [1]: 22 nM

ISIS 449709: 3-8-3, 4-8-4, 2-10-2, 3-10-3 or 4-10-4 MOE microwalk gapmer (Table 46) (antisense eG*e[5mC]*eA*e[5mC]*dA*dG*dT*dT*dT*d[5mC]*dT*dG*dG*d[5mC]*eA*eG*eG*e[5mC])
ALT [3]: 63 IU/L
AST [3]: 126 IU/L
Albumin [3]: 3.1
Bilirubin [3]: 0.2 mg/dL
Platelets [4]: 1447 nL⁻¹
RBC [4]: 9.2 pL⁻¹
WBC [4]: 5 nL⁻¹
hematocrit [4]: 49%
hemoglobin [4]: 13.2 g/dL
lymphocytes [4]: 76%
monocytes [4]: 4%
neutrophils [4]: 19%

412224 (antisense GCATTGGTGCACAGTTTCTG; 5-10-5 MOE gapmer, further chemistry not given here) [compound 412224]
percent inhibition of Factor 11 at 9.375 nM [1]: 24%
percent inhibition of Factor 11 at 18.75 nM [1]: 45%
percent inhibition of Factor 11 at 37.5 nM [1]: 57%
percent inhibition of Factor 11 at 75 nM [1]: 70%
percent inhibition of Factor 11 at 150 nM [1]: 81%
IC50 [1]: 28 nM

ISIS 449711: 3-8-3, 4-8-4, 2-10-2, 3-10-3 or 4-10-4 MOE microwalk gapmer (Table 46) (antisense eA*e[5mC]*dA*dG*dT*dT*dT*d[5mC]*dT*dG*dG*d[5mC]*eA*eG)
ALT [3]: 32 IU/L
AST [3]: 163 IU/L
Albumin [3]: 2.9
Bilirubin [3]: 0.1 mg/dL
Platelets [4]: 1225 nL⁻¹
RBC [4]: 9.0 pL⁻¹
WBC [4]: 6 nL⁻¹
hematocrit [4]: 48%
hemoglobin [4]: 13.3 g/dL
lymphocytes [4]: 79%
monocytes [4]: 6%
neutrophils [4]: 15%

ISIS 449707: 3-8-3, 4-8-4, 2-10-2, 3-10-3 or 4-10-4 MOE microwalk gapmer (Table 46) (antisense e[5mC]*eA*e[5mC]*eA*dG*dT*dT*dT*d[5mC]*dT*dG*dG*e[5mC]*eA*eG*eG)
ALT [3]: 61 IU/L
AST [3]: 199 IU/L
Albumin [3]: 3.1
Bilirubin [3]: 0.2 mg/dL
Platelets [4]: 1386 nL⁻¹
RBC [4]: 8.4 pL⁻¹
WBC [4]: 6 nL⁻¹
hematocrit [4]: 45%
hemoglobin [4]: 12.4 g/dL
lymphocytes [4]: 85%
monocytes [4]: 3%
neutrophils [4]: 11%

416850 (antisense TGCACAGTTTCTGGCAGGCC; 5-10-5 gapmer, further chemistry not given here) [compound 416850]
Percent inhibition of Factor 11 mRNA at 375 nM [2]: 40%
Percent inhibition of Factor 11 mRNA at 750 nM [2]: 59%
Percent inhibition of Factor 11 mRNA at 1,500 nM [2]: 69%
Percent inhibition of Factor 11 mRNA at 3,000 nM [2]: 87%
Percent inhibition of Factor 11 mRNA at 6,000 nM [2]: 90%
Percent inhibition of Factor 11 mRNA at 12,000 nM [2]: 95%
IC50 [2]: 560 nM
